Assay [1] has as its system Cryptococcus neoformans IFM 5844. In words: microbe, parasite or virus in culture. The class given is cell-based. The following applies: five-fold diluted YNB + 1 % dextrose, 5 × 10^4 cells/mL, 30 °C, 72 h, OD 620 nm, ≥ 90 % growth inhibition, tested 25 to 0.39 µM, three biological replicates. On the procedure:
The susceptibility of Cryptococcus neoformans IFM 5844 to 20 peptides (Supplementary Table 1) was tested in a widely used synthetic medium to cultivate yeasts (YNB) and in a serum-free medium what is able to support the proliferation of macrophage cells (X-VIVO).
YNB medium: five-fold diluted Difco Yeast Nitrogen Base w/o Amino Acids medium (Becton, Dickinson and Company, Sparks, MD, USA) supplemented with 1 % dextrose
The minimal inhibitory concentration (MIC) of each peptide was determined by using micro-dilution assay. The C. neoformans suspensions were adjusted to 5 × 10^4 cells/mL concentration in either YNB or X-VIVO medium. A 96-well microtiter plate was prepared by adding 95 µL suspension per well followed by 5 µL of serially two-fold diluted peptide solutions achieving a final volume of 100 µl. The concentration of the peptides ranged from 25 to 0.39 µM. For control samples, 5 µL pure medium was added to the yeast cell suspension instead of peptides. Plates were incubated at 37 °C for 48 h in X-VIVO medium and 30 °C for 72 h in YNB medium. After incubation, optical density was measured at 620 nm using a SPECTROstar Nano plate reader (BMG LabTech, Offenburg, Germany). […] The experiments were carried out in three independent biological replicates.

For assay [2] the test system is unchanged. Kind of assay: Minimal fungicidal concentration (MFC) determination, spotting on YPD. The class given is cell-based. The note with it: cultures from MIC assays diluted and spotted onto solid YPD, 30 °C, 48 h. On the procedure:
Minimal fungicidal concentration (MFC) determination. To assess fungicidal activity, both control and peptide-treated cultures from the MIC assays were diluted 10-fold and 100-fold in sterile distilled water. Five µL from each dilution was then spotted onto solid YPD medium (1 % pepton, 1 % dextrose, 0.5 % yeast extract, 2 % agar). The plates were incubated at 30 °C for 48 h and fungal growth was evaluated. MFC was defined as the lowest peptide concentration at which no visible fungal growth was detected, indicating complete fungicidal activity.

Assay [3] concerns C. neoformans IFM 5844 cells. Kind of assay: Cell membrane permeability, calcein-AM assay by flow cytometry. The format is cell-based, Cryptococcus neoformans. The following applies: half-MIC, 2 h, 30 °C, YNB. Here is the method:
The effect of the peptides on the cell membrane permeability of C. neoformans IFM 5844 cells was checked by flow cytometry with calcein-AM assay ([Olson, et al., 2001]). Calcein-acetoxymethyl ester (calcein-AM) is a membrane-permeable live-cell dye that, upon entering the cell, is cleaved by intracellular esterases, converting it into calcein, a membrane-impermeable fluorescent marker. The assay was carried out by suspending a total of 1 × 10^7 cells in 100 µl YNB medium containing 20 µg/mL indomethacin (Sigma-Aldrich, Saint Louis, MO, USA) and incubating them at 30 °C for 30 min to inhibit calcein transporters. Following this pre-treatment, membrane-permeable calcein-AM (Invitrogen, Waltham, MA, USA) was added to a final concentration of 5 µg/mL, and the samples were incubated at 30 °C for 3 h allowing the calcein-AM to enter the cells where esterases converted it to fluorescent calcein. After incubation, cells were washed twice with sterile distilled water and subsequently exposed to peptides at half-MIC concentrations in YNB medium for 2 h at 30 °C. Following peptide treatment, cells were washed twice with sterile distilled water, and fluorescence intensity was measured using a FlowSight® flow cytometer (Amnis-EMD Millipore) equipped with a 488-nm excitation laser. Intact cells stained with calcein-AM but not exposed to peptides served as controls. To ensure statistical reliability, four independent experiments were conducted, and fluorescence intensity was recorded from 10,000 cells per sample during each experiment.

Where [4] appears, read: Cryptococcus neoformans, IFM5844, read-out: MIC.

Where two headings read alike, the source gives them in different places. Bridge positions count the residues as written; N and C are the ends. Peptide text beside a SMILES is read from it.

As to “KLRRANVRCRK [NCR335C17–27, further truncation of NCR335C17–33]”, the MIC entry in assay [1] is “lacked inhibitory effect”.
Take `CC[C@H](C)[C@H](NC(=O)[C@H](CCCCN)NC(=O)[C@H](Cc1ccccc1)NC(=O)[C@H](CC(C)C)NC(=O)[C@@H]1CCCN1C(=O)[C@H](CCCCN)NC(=O)[C@H](CCCCN)NC(=O)[C@H](CO)NC(=O)[C@@H](N)CCCCN)C(=O)N[C@@H](Cc1c[nH]c2ccccc12)C(=O)N[C@@H](CCCCN)C(=O)N[C@@H](CS)C(=O)N[C@H](C(=O)N[C@@H](CCC(=O)O)C(=O)N[C@@H](CC(N)=O)C(=O)N[C@H](C(=O)N[C@@H](CS)C(=O)N[C@H](C(=O)N[C@@H](CC(C)C)C(=O)N[C@@H](Cc1c[nH]c2ccccc12)C(=O)N[C@@H](Cc1ccc(O)cc1)C(=O)N[C@@H](CCCCN)C(N)=O)C(C)C)C(C)C)C(C)C` [NCR169C17–38] (H-KSKKPLFKIWKCVENVCVLWYK-NH2; N-terminus assumed): the MIC in assay [1] (read-out: MIC) was determined as 3.12 µM. Also, in assay [2], the “fungistatic or fungicide mode of action” value is reported as “fungicidal effect”. Moreover, in assay [3], the “calcein leakage / membrane permeability disruption” value is reported as “highest calcein leakage”.
As to “HFSLILSDCKTNKDCP [NCR335C1–16, short derivative of NCR335 C-terminal region]”, the MIC entry in assay [1] was “lacked inhibitory effect”.
As to `C[C@@H]1[C@H](O)[C@@H](C)/C=C/C=C/C=C/C=C/C=C/C=C/C=C/[C@H](O[C@@H]2O[C@H](C)[C@@H](O)[C@H](N)[C@@H]2O)C[C@@H]2O[C@](O)(C[C@@H](O)C[C@@H](O)[C@H](O)CC[C@@H](O)C[C@@H](O)CC(=O)O[C@H]1C)C[C@H](O)[C@H]2C(=O)O` [amphotericin B, reference compound], in assay [1] (setting [4]), the MIC was found to be 1.56 µM.
Turning to “FWGQNRNIMKHRGQ [NCR335N16–29, 14 amino acid-long N-terminal fragment of NCR335]”, the MIC entry in assay [1] is “ineffective”.
In the case of “RLNTTFRPLNFKMLRFWGQNRNIMKHRGQKVHFSLILSDCKTNKDCPKLRRANVRCRKSYCVPI [NCR335, 64-amino-acid-long cationic M. truncatula NCR peptide]”, the MIC in assay [1] (read-out: MIC) was 3.12 µM.
As to `CC[C@H](C)[C@H](NC(=O)[C@@H]1CCCN1C(=O)[C@@H](NC(=O)[C@H](CS)NC(=O)[C@H](Cc1ccc(O)cc1)NC(=O)[C@H](CO)NC(=O)[C@H](CCCCN)NC(=O)[C@H](CCCNC(=N)N)NC(=O)[C@H](CS)NC(=O)[C@H](CCCNC(=N)N)NC(=O)[C@@H](NC(=O)[C@H](CC(N)=O)NC(=O)[C@H](C)NC(=O)[C@H](CCCNC(=N)N)NC(=O)[C@H](CCCNC(=N)N)NC(=O)[C@H](CC(C)C)NC(=O)[C@H](CCCCN)NC(=O)[C@@H]1CCCN1C(=O)[C@H](CS)NC(=O)[C@H](CC(=O)O)NC(=O)[C@H](CCCCN)NC(=O)[C@H](CC(N)=O)NC(=O)[C@@H](NC(=O)[C@H](CCCCN)NC(=O)[C@H](CS)NC(=O)[C@H](CC(=O)O)NC(=O)[C@H](CO)NC(=O)[C@H](CC(C)C)NC(=O)[C@@H](NC(=O)[C@H](CC(C)C)NC(=O)[C@H](CO)NC(=O)[C@H](Cc1ccccc1)NC(=O)[C@@H](N)Cc1c[nH]cn1)[C@@H](C)CC)[C@@H](C)O)C(C)C)C(C)C)C(N)=O` [NCR335C1–33] (H-HFSLILSDCKTNKDCPKLRRANVRCRKSYCVPI-NH2; N-terminus assumed), the “fungistatic or fungicide mode of action” value in assay [2] is “fungicidal effect”.
Consider `CC(C)C[C@H](NC(=O)[C@@H]1CCCN1C(=O)[C@H](CCCNC(=N)N)NC(=O)[C@H](CCCNC(=N)N)NC(=O)[C@H](CS)NC(=O)[C@H](CCC(N)=O)NC(=O)[C@@H](N)CCC(N)=O)C(=O)N[C@@H](Cc1ccc(O)cc1)C(=O)N[C@@H](CS)C(=O)N[C@@H](CCCNC(=N)N)C(=O)N[C@@H](CCCNC(=N)N)C(=O)N[C@@H](CCCNC(=N)N)C(N)=O` [NCR247C] (H-QQCRRPLYCRRR-NH2; N-terminus assumed), for which the MIC in assay [1] (read-out: MIC) amounted to 6.25 µM. For the same molecule, the “fungistatic or fungicide mode of action” value in assay [2] was “fungicidal effect”. Further, in assay [3], the “calcein leakage / membrane permeability disruption” value is reported as “highest calcein leakage”.
With “HFSLILSD [NCR335C1–8, short derivative of NCR335 C-terminal region]”, the MIC entry in assay [1] is reported as “lacked inhibitory effect”.
Take `CC[C@H](C)[C@H](NC(=O)[C@H](CCCCN)NC(=O)[C@H](Cc1ccccc1)NC(=O)[C@H](CC(C)C)NC(=O)[C@@H]1CCCN1C(=O)[C@H](CCCCN)NC(=O)[C@H](CCCCN)NC(=O)[C@H](CO)NC(=O)[C@@H](N)CCCCN)C(=O)N[C@@H](C)C(=O)N[C@@H](CCCCN)C(=O)N[C@@H](CS)C(=O)N[C@H](C(=O)N[C@@H](CCC(=O)O)C(=O)N[C@@H](CC(N)=O)C(=O)N[C@H](C(=O)N[C@@H](CS)C(=O)N[C@H](C(=O)N[C@@H](CC(C)C)C(=O)N[C@@H](C)C(=O)N[C@@H](Cc1ccc(O)cc1)C(=O)N[C@@H](CCCCN)C(N)=O)C(C)C)C(C)C)C(C)C` [NCR169C17–38W10,20/A] (H-KSKKPLFKIAKCVENVCVLAYK-NH2; N-terminus assumed): the MIC in assay [1] (read-out: MIC) is 6.25 µM. The “fungistatic or fungicide mode of action” value in assay [2] is on record as “fungicidal effect”. Moreover, in assay [3], the “calcein leakage / membrane permeability disruption” value is given as “highest calcein leakage”.
For `CC[C@H](C)[C@H](NC(=O)[C@H](CCCCN)NC(=O)[C@H](Cc1ccccc1)NC(=O)[C@H](CC(C)C)NC(=O)[C@@H]1CCCN1C(=O)[C@H](CCCCN)NC(=O)[C@H](CCCCN)NC(=O)[C@H](CO)NC(=O)[C@@H](N)CCCCN)C(=O)N[C@@H](Cc1c[nH]c2ccccc12)C(=O)N[C@@H](CCCCN)C(=O)N[C@H]1CSSC[C@@H](C(=O)N[C@H](C(=O)N[C@@H](CC(C)C)C(=O)N[C@@H](Cc2c[nH]c3ccccc23)C(=O)N[C@@H](Cc2ccc(O)cc2)C(=O)N[C@@H](CCCCN)C(N)=O)C(C)C)NC(=O)[C@H](C(C)C)NC(=O)[C@H](CC(N)=O)NC(=O)[C@H](CCC(=O)O)NC(=O)[C@H](C(C)C)NC1=O` [NCR169C17–38ox] (H-KSKKPLFKIWKCVENVCVLWYK-NH2; disulfide 12-17; N-terminus assumed), the MIC in assay [1] (read-out: MIC) is 3.12 µM. Besides, in assay [2], the “fungistatic or fungicide mode of action” value is “fungicidal effect”.
With “CKTNKDCP [NCR335C9–16, short derivative of NCR335 C-terminal region]”, the MIC entry in assay [1] was “lacked inhibitory effect”.
On to `OC(Cn1cncn1)(Cn1cncn1)c1ccc(F)cc1F` [Fluconazole, fluconazole, reference compound], for which, in assay [1] (setting [4]), the MIC was determined as 12.5 µM.

The record behind these values is article PMC12164026, “Plant-derived nodule-specific cysteine-rich peptides as potent antifungal agents against Cryptococcus neoformans: mechanisms of action, chimeric peptide enhancement, and immunomodulatory effects” (Current Research in Microbial Sciences, 2025).
